Assay results: ChEMBL document CHEMBL5370572, “Coscinoderines A-J: Trisubstituted Pyridinium-Containing Norterpenoids Isolated from Coscinoderma bakusi, a Tropical Marine Sponge” (J Nat Prod, 2023)
Calls of active or inactive are those of the source. No cut-off for these calls is given here.

Legend:
HEK293 = assay: Cytotoxicity against HEK293 cells assessed as reduction in cell proliferation at 1.25 to 80 uM measured after 48 hrs by MTS assay; assay type: toxicity, cell-based; conditions: human, hek293, 48 h, dose 1.25-80 µM
Micrococcus luteus [1] = assay: Antibacterial activity against Micrococcus luteus KCTC 1915 assessed as inhibition of bacterial growth at 75 uM; assay type: functional, organism-based
Micrococcus luteus [2] = assay: Antibacterial activity against Micrococcus luteus KCTC 1915 assessed as inhibition of bacterial growth at 72.6 uM; assay type: functional, organism-based
Staphylococcus aureus = assay: Antibacterial activity against Staphylococcus aureus ATCC 25923 assessed as inhibition of bacterial growth at 45.4 uM; assay type: functional, organism-based

| Compound | Activity (HEK293) | inhibition (Micrococcus luteus [1]) | inhibition (Micrococcus luteus [2]) | inhibition (Staphylococcus aureus) |
| --- | --- | --- | --- | --- |
| C=C(C)[C@@]1(CC/C(C)=C/CCCc2ccc(CC(=O)O)c[n+]2CC(C)C)CCC[C@H]1C | Non-Toxic | Active |  |  |
| CC(C)=CCC/C(C)=C/CC/C(C)=C/CCCc1ccc(CC(=O)O)c[n+]1CC(=O)O | Non-Toxic |  |  |  |
| C=C(C)[C@@]1(CC/C(C)=C/CCCc2ccc(CC(=O)O)c[n+]2C[C@@H](C)CC)CCC[C@H]1C | Non-Toxic |  | Active | Active |
| CC1=C(CC/C(C)=C/CCCc2ccc(CC(=O)O)c[n+]2CCS(=O)(=O)O)C(C)(C)CCC1 | Non-Toxic |  |  |  |
